This note sets out measurements from ChEMBL document CHEMBL5150075 (J Med Chem, 2022).

pIC50: −log10 of the molar value. Activity calls are given as the source filed them. The calls are words filed in the database; no cut-off is given here.

Data set [1] relates to DU-145. The data set can be described thus: Induction of G2/M phase cell cycle arrest in human DU-145 cells assessed as increase in histone H3 phosphorylation at Ser10 residue at 0.03 to 0.3 uM measured after 12 hrs by Western blot analysis. It counts as functional, cell-based. The note with it: dose 0.03-0.3 µM.
The test system of data set [2] is DU-145. Briefly: Induction of apoptosis in human DU-145 cells assessed as live cells at 0.1 uM incubated for 48 hrs by Annexin V-FITC/PI staining based flow cytometry analysis (reference value: 94.94%). It counts as functional.
Data set [3] deals with DU-145. The data set can be described thus: Antiproliferative activity against human DU-145 cells assessed as inhibition of cell growth incubated for 24 hrs by real-time cell analysis. It counts as functional, cell-based. The note with it: DU-145, 24 h.
Data set [4] relates to DU-145. The data set can be described thus: Antiproliferative activity against human DU-145 cells assessed as inhibition of cell growth incubated for 48 hrs by real-time cell analysis. Format: functional, cell-based. The note with it: DU-145, 48 h.
A further data set deals with NCI-H1299. The data set can be described thus: Antiproliferative activity against human NCI-H1299 cells assessed as inhibition of cell growth incubated for 72 hrs by MTT assay. It counts as functional, cell-based. The note with it: NCI-H1299, 72 h. (In general: Tetrazolium dyes change colour on reduction, which living cells bring about.)
The nature of data set [5]: AUC (0 to t) in Kunming mouse at 20 mg/kg, po by LC-MS/MS analysis. Format: ADME, organism-based. Also on record: dose 20 mg/kg, route po. Particulars: in vivo.
The nature of data set [6]: Toxicity in BALB/c nude mouse xenografted with human DU-145 cells assessed as reduction in body weight at 5 mg/kg, po administered once daily and measured twice a week. Format: organism-based. Particulars: in vivo. (In general: In xenograft studies the graft and the host belong to different species.)
The nature of data set [7]: Mutagenicity in Salmonella typhimurium TA-1535 at 0.5 to 500 ug per plate incubated for 72 hrs in presence or absence of S9 fraction by Ames test. It counts as toxicity, Salmonella enterica subsp. enterica serovar Typhimurium. Particulars: in vivo, dose 0.5-500 µg. (The Ames test detects mutagens through reverse mutation in bacteria.)
The nature of data set [8]: Toxicity in specific pathogen-free Kunming mouse assessed as pathological changes in kidney at 10 mg/kg, po administered once daily and measured after 7 days by hematoxylin and eosin staining based analysis. Format: organism-based. Particulars: in vivo, 168 h, time 7 day.

A word on the pIC50: it is the negative decadic logarithm of the IC50, by convention in mol/L. The AUC(0-t) is the area under the concentration-time curve up to a stated or last time point. Read a low AUC(0-t) as less exposure. On to `Cc1ccc(S(=O)(=O)Nc2cc(C(=O)NCc3ccc(C)nc3)ccc2C)cc1`, for which the result with DU-145 [1] was Active. The Activity is on record as 43.52% in the data set on DU-145 [2], “Non-Toxic” in data set [6], “Non-Toxic” in [7] and “Non-Toxic” in data set [8]. Further, the pIC50 in the data set with DU-145 [3] was 8.00; in the data set on DU-145 [4], 8.00; with NCI-H1299 it was 8.40. In data set [5], this compound yielded an AUC(0-t) of 2580 ng·h/mL.
